Source: ChEMBL document CHEMBL1909046, “DrugMatrix in vitro pharmacology data”

Tests used:
[1] = DRUGMATRIX: Calcium Channel Type L, Benzothiazepine radioligand binding (ligand: [3H] Diltiazem); type: cell membranes, Rattus norvegicus, Wistar, Brain, Membrane; details: Not Active = under 50% inhibition at 10 µM
[2] = biological target: 5-hydroxytryptamine receptor 2B (Homo sapiens, UniProt P41595); type: cell membranes, CHO-K1, Membrane; further: in other assays of this panel Not Active means under 50% inhibition at 10 µM
[3] = biological target: T1, C-C chemokine receptor type 4 (Homo sapiens, UniProt P51679); type: cell membranes, Membrane; details: chem-1; further: in other assays of this panel Not Active means under 50% inhibition at 10 µM
T1 sequence (P51679 whole entry): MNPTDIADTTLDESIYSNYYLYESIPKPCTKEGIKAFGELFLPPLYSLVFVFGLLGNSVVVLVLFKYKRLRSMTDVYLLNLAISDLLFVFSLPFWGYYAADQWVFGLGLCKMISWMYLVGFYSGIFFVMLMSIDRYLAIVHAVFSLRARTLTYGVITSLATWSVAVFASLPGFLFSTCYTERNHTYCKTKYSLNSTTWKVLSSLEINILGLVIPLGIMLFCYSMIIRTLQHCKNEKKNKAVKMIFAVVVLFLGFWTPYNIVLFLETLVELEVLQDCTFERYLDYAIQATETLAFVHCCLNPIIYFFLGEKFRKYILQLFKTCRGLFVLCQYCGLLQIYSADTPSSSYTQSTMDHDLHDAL

D(1A) dopamine receptor = D(1A) dopamine receptor (Homo sapiens, UniProt P21728); assay: DRUGMATRIX: Dopamine D1 radioligand binding (ligand: [3H] SCH-23390); type: cell membranes, Membrane; details: cho; Not Active = under 50% inhibition at 10 µM
Histamine H2 receptor = Histamine H2 receptor (Homo sapiens, UniProt P25021); type: cell membranes, CHO-K1, Membrane; details: cho-k1; further: in other assays of this panel Not Active means under 50% inhibition at 10 µM
[4] = biological target: Mitogen-activated protein kinase 1 (Homo sapiens, UniProt P28482); assay: DRUGMATRIX: Protein Serine/Threonine Kinase, ERK2 enzyme inhibition (substrate: Myelin Basic Protein); set-up: species or system Escherichia coli; details: Not Active = under 50% inhibition at 10 µM
Chain of Mitogen-activated protein kinase 1 (P28482 whole entry): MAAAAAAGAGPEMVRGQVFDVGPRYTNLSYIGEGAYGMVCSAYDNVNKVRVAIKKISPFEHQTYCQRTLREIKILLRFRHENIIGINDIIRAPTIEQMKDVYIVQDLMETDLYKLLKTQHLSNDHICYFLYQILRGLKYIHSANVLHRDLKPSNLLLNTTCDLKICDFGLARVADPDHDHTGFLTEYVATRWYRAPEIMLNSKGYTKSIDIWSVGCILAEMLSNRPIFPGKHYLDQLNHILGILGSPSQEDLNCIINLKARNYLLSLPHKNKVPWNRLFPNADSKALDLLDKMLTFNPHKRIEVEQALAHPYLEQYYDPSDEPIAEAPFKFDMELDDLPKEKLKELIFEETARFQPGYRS

Chain of D(1A) dopamine receptor (P21728 whole entry): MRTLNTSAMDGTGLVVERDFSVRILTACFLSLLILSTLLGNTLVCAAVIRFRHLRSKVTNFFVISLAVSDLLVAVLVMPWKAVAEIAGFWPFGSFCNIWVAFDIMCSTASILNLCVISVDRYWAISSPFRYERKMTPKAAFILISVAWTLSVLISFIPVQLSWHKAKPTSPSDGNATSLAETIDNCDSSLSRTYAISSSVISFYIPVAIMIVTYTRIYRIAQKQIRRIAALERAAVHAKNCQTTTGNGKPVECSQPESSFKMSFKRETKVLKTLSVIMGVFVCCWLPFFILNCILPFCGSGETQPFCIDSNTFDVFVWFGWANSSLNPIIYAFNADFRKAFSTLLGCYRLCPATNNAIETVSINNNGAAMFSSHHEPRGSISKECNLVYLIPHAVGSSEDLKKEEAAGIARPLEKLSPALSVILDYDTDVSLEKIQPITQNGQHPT
Chain of 5-hydroxytryptamine receptor 2B (P41595 whole entry): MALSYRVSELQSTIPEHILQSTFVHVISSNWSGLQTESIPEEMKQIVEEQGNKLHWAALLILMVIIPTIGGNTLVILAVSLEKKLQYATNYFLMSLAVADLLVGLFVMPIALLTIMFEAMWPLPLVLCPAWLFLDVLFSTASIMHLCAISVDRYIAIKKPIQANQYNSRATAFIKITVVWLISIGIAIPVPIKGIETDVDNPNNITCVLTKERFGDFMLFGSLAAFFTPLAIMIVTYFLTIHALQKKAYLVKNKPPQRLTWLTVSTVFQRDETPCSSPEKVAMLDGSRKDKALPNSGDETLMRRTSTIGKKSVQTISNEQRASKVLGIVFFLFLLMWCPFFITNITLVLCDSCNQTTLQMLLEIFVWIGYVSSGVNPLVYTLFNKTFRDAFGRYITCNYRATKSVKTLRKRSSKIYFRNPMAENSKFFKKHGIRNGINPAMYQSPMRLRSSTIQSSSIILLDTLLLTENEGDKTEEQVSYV
Chain of Histamine H2 receptor (P25021 whole entry): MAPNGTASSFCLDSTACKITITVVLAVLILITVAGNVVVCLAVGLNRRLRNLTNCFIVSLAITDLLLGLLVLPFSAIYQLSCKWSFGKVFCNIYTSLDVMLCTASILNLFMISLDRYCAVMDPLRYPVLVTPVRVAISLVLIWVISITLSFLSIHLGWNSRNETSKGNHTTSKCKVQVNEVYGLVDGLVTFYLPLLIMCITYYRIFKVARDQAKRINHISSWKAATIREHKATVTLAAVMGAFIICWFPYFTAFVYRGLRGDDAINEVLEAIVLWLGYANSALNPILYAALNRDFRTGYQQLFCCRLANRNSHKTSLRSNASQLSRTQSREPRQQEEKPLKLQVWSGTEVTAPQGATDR

Row | Compound | IC50 [1] | Ki [1] | IC50 ([2]; cho-k1) | IC50 [3] | IC50 (D(1A) dopamine receptor) | IC50 (Histamine H2 receptor) | IC50 [4] | IC50 ([4]; read-out: IC50) [nM] | IC50 ([1]; read-out: IC50) [nM] | Ki ([1]; read-out: Ki) [nM] | IC50 ([2]; read-out: IC50) [nM] | Ki ([2]; read-out: Ki) [nM] | Ki ([2]; cho-k1) | Ki [3] | Ki (D(1A) dopamine receptor) | Ki (Histamine H2 receptor) | Ki [4]
1 | Oc1ccc(OCc2ccccc2)cc1 [MONOBENZONE] | Not Active | Not Active | Not Active | Not Active | Not Active | Not Active | Not Active |  |  |  |  |  |  |  |  |  | 
2 | CC(C)(Oc1ccc(C2CCCc3ccccc32)cc1)C(=O)O (stereo not drawn) [NAFENOPIN] | Not Active | Not Active | Not Active | Not Active | Not Active | Not Active |  | 815 |  |  |  |  |  |  |  |  | 
3 | COc1ccc2cc([C@H](C)C(=O)O)ccc2c1 [NAPROXEN] | Not Active | Not Active | Not Active | Not Active | Not Active | Not Active | Not Active |  |  |  |  |  |  |  |  |  | 
4 | CC(C)[C@H]1CC[C@H](C(=O)N[C@H](Cc2ccccc2)C(=O)O)CC1 [NATEGLINIDE] | Not Active | Not Active | Not Active | Not Active | Not Active | Not Active | Not Active |  |  |  |  |  |  |  |  |  | 
5 | CCN[C@@H]1C[C@H](N)[C@@H](O[C@H]2OC(CN)=CC[C@H]2N)[C@H](O)[C@H]1O[C@H]1OC[C@](C)(O)[C@H](NC)[C@H]1O [NETILMICIN] | Not Active | Not Active | Not Active | Not Active | Not Active | Not Active | Not Active |  |  |  |  |  |  |  |  |  | 
6 | COC(=O)C1=C(C)NC(C)=C(C(=O)OCC(C)C)C1c1ccccc1[N+](=O)[O-] (stereo not drawn) [NISOLDIPINE] |  |  | Not Active | Not Active | Not Active | Not Active | Not Active |  | 2.48 | 2.21 |  |  |  |  |  |  | 
7 | CCOC(=O)C1=C(C)NC(C)=C(C(=O)OC)C1c1cccc([N+](=O)[O-])c1 (stereo not drawn) [NITRENDIPINE] |  |  | Not Active | Not Active | Not Active | Not Active | Not Active |  | 1.56 | 1.39 |  |  |  |  |  |  | 
8 | C#C[C@]1(OC(C)=O)CC[C@H]2[C@@H]3CCC4=CC(=O)CC[C@@H]4[C@H]3CC[C@@]21C [NORETHINDRONE ACETATE] | Not Active | Not Active | Not Active | Not Active | Not Active | Not Active | Not Active |  |  |  |  |  |  |  |  |  | 
9 | COc1ccc2[nH]c([S+]([O-])Cc3ncc(C)c(OC)c3C)nc2c1 (stereo not drawn) [OMEPRAZOLE] | Not Active | Not Active | Not Active | Not Active | Not Active | Not Active | Not Active |  |  |  |  |  |  |  |  |  | 
10 | Cc1nccn1CC1CCc2c(c3ccccc3n2C)C1=O (stereo not drawn) [ONDANSETRON] | Not Active | Not Active |  | Not Active | Not Active | Not Active | Not Active |  |  |  | 717 | 456 |  |  |  |  | 
11 | CCn1cc(C(=O)O)c(=O)c2cc(F)c(N3CCN(C)CC3)cc21 [PEFLOXACIN] | Not Active | Not Active | Not Active | Not Active | Not Active | Not Active | Not Active |  |  |  |  |  |  |  |  |  | 
12 | CCCCOc1ccc(OCCCN2CCOCC2)cc1 [PRAMOXINE] | Not Active | Not Active | Not Active | Not Active | Not Active | Not Active | Not Active |  |  |  |  |  |  |  |  |  | 
13 | O=C(C1CCCCC1)N1CC(=O)N2CCc3ccccc3C2C1 (stereo not drawn) [PRAZIQUANTEL] | Not Active | Not Active | Not Active | Not Active | Not Active | Not Active | Not Active |  |  |  |  |  |  |  |  |  | 
14 | CCN(CC)CCOC(=O)c1ccc(N)cc1 [PROCAINE] | Not Active | Not Active | Not Active | Not Active | Not Active | Not Active | Not Active |  |  |  |  |  |  |  |  |  | 
15 | CCCN(CCC)C(=O)C(CCC(=O)O)NC(=O)c1ccccc1 (stereo not drawn) [PROGLUMIDE] | Not Active | Not Active | Not Active | Not Active | Not Active | Not Active | Not Active |  |  |  |  |  |  |  |  |  | 
16 | NC(=O)c1cnccn1 [PYRAZINAMIDE] | Not Active | Not Active | Not Active | Not Active | Not Active | Not Active | Not Active |  |  |  |  |  |  |  |  |  | 
17 | OC(CCN1CCCCC1)(c1ccccc1)C1CCCCC1 (stereo not drawn) [TRIHEXYPHENIDYL] |  |  | Not Active | Not Active | Not Active | Not Active | Not Active |  | 4810 | 4280 |  |  |  |  |  |  | 
18 | Cc1cc2cc3c(C)cc(=O)oc3c(C)c2o1 [TRIOXSALEN] | Not Active | Not Active | Not Active | Not Active | Not Active | Not Active | Not Active |  |  |  |  |  |  |  |  |  | 
19 | CCCC(CCC)C(=O)O [VALPROIC ACID] | Not Active | Not Active | Not Active | Not Active | Not Active | Not Active | Not Active |  |  |  |  |  |  |  |  |  | 
20 | CCC1=C[C@@H]2CN(C1)Cc1c([nH]c3ccccc13)[C@@](C(=O)OC)(c1cc3c(cc1OC)N(C)[C@H]1[C@@](O)(C(=O)OC)[C@H](OC(C)=O)[C@]4(CC)C=CCN5CC[C@]31[C@@H]54)C2 [VINORELBINE] | Not Active | Not Active | Not Active | Not Active | Not Active | Not Active | Not Active |  |  |  |  |  |  |  |  |  | 
21 | CADMIUM DICHLORIDE | Not Active | Not Active | Not Active | Not Active | Not Active | Not Active | Not Active |  |  |  |  |  | Not Active | Not Active | Not Active | Not Active | Not Active
